In one experiment the test system is PANC-1 pERK. The experiment is described as follows: Phospho-ERK 1/2 assay. It counts as cell-based. The following applies: Homo sapiens, PANC-1, 3 h, PANC-1 cells, compound incubation 3 hours, pERK normalised with GAPDH antibody staining. The method, then: Allow PNAC-1 cell growth in a T75 flask in DMEM and 10% 1 fetal calf serum (FCS; Gibco®), using standard tissue culture procedures until ~80% confluency is achieved. Day 1, seed 6000 cells/well in 384 well plate and incubate at 37° C., 5% CO2. Add diluted compound by Echo 550, final DMSO is 0.5%, incubate cells at 37° C., 5% CO2 for 3 hours. Then, remove medium and fix cells with 3.7% formaldehyde in PBS (PFA) by Apricot. Wash with PBS once. Permeabilize cells with cold 100% methanol and repeat wash once with PBS once. Add Li-Cor blocking buffer to each well and incubate 1.5 hours at RT. Remove blocking buffer and add primary antibody mixture (rabbit anti pERK, mouse anti GAPDH). Incubate at 4° C. overnight. Day 2, wash with PBST (Tween-20 in PBS) with total 3 times and then add secondary antibody mixture (goat anti rabbit 800CW (1:800 dilution in the combined solution) and goat anti mouse 680RD (1:800 dilution in the combined solution)), incubate for 60 minutes at RT away from light. Repeat washing with PBST 3 times. After final wash, centrifuge plate up-side-down at 1000 rpm to remove wash solution completely from wells. Before plate scanning, clean the bottom plate surface and the Odyssey© Imager scanning bed (if applicable) with moist, lint-free tissue to avoid any obstructions during scanning. Scan plate with detection in both 700 and 800 nm channels.
As usually defined, the IC50 is the midpoint of a concentration-inhibition curve. Read a high IC50 as lower potency. Consider `C#Cc1c(F)ccc2cccc(-c3nc4c5c(nc(=O)n(C[C@H]6CCN6C)c5c3F)N3C[C@H]5CC[C@H](N5)[C@H]3[C@H](C)O4)c12` [Example 366, (8S,8aS,9S,12R)-5-(8-ethynyl-7-fluoronaphthalen-1-yl)-4-fluoro-8-methyl-3-(((R)-1-methylazetidin-2-yl)methyl)-8a,9,10,11,12,13-hexahydro-8H-7-oxa-1,3,6,13a,14-pentaaza-9,12-methanonaphtho[1,8-ab]heptalen-2(3H)-one], for which the IC50 came out at 272 nM. The same measure, in the same setting: the same measure for `CCc1c(F)ccc2cc(O)cc(-c3nc4c5c(nc(=O)n(C[C@H]6CCN6C)c5c3F)N3C[C@H]5CC[C@H](N5)[C@H]3[C@H](C)O4)c12` [Example 369, (8S,8aS,9S,12R)-5-(8-ethyl-7-fluoro-3-hydroxynaphthalen-1-yl)-4-fluoro-8-methyl-3-(((R)-1-methylazetidin-2-yl)methyl)-8a,9,10,11,12,13-hexahydro-8H-7-oxa-1,3,6,13a,14-pentaaza-9,12-methanonaphtho[1,8-ab]heptalen-2(3H)-one]: 400 nM; for `C#Cc1c(F)ccc2cccc(-c3nc4c5c(nc(=O)n(C[C@@]6(C)CCCN6C)c5c3F)N3C[C@H]5CC[C@H](N5)[C@H]3[C@H](C)O4)c12` [Example 367, (8S,8aS,9S,12R)-3-(((R)-1,2-dimethylpyrrolidin-2-yl)methyl)-5-(8-ethynyl-7-fluoronaphthalen-1-yl)-4-fluoro-8-methyl-8a,9,10,11,12,13-hexahydro-8H-7-oxa-1,3,6,13a,14-pentaaza-9,12-methanonaphtho[1,8-ab]heptalen-2(3H)-one]: 234 nM; for `C#Cc1c(F)ccc2cc(O)cc(-c3nc4c5c(nc(=O)n(CC67CCCN6CC(=C)C7)c5c3F)N3C[C@H]5CC[C@H](N5)[C@H]3[C@H](C)O4)c12` (stereo partly drawn) [Example 222]: 113 nM. Same read-out and setting: the same measure for `C=C1CN2CCC[C@@]2(Cn2c(=O)nc3c4c(nc(-c5cc(O)cc6ccc(F)c(CC)c56)c(F)c42)OC[C@@H]2[C@@H]4CC[C@H](CN32)N4)C1` (single isomer, unassigned) [Example 46a]: 5.9 nM; for `C#Cc1c(F)ccc2cccc(-c3nc4c5c(nc(=O)n(CC67CCCN6CC(=C)C7)c5c3F)N3C[C@H]5CC[C@H](N5)[C@H]3CO4)c12` (stereo partly drawn) [Example 2]: 15 nM.

Take `C#Cc1c(F)ccc2cc(O)cc(-c3nc4c5c(cc(=O)n(C[C@@]67CCCN6CC(=C)C7)c5c3F)N3C[C@H]5CC[C@H](N5)[C@H]3[C@H](C)O4)c12` [Example 330, (5S,5aS,6S,9R)-2-(8-ethynyl-7-fluoro-3-hydroxynaphthalen-1-yl)-1-fluoro-5-methyl-14-(((S)-2-methylenetetrahydro-1H-pyrrolizin-7a(5H)-yl)methyl)-5a,6,7,8,9,10-hexahydro-5H-6,9-epiminoazepino[2′,1′:3,4][1,4] oxazepino[5,6,7-de][1,6]naphthyridin-13(14H)-one]: the IC50 came out at 171 nM.

`CCc1c(F)ccc2cc(O)cc(-c3nc4c5c(nc(=O)n(C(C)[C@H]6CCN6C)c5c3F)N3C[C@H]5CC[C@H](N5)[C@H]3[C@H](C)O4)c12` (single isomer, unassigned) [Example 376a]: the IC50 was found to be 145 nM. On the same count and under the same terms, the same measure for `C=C1CN2CCC[C@]2(Cn2c(=O)nc3c4c(nc(-c5cc(O)cc6ccc(F)c(CC)c56)c(F)c42)OC[C@@H]2[C@@H]4CC[C@H](CN32)N4)C1` (single isomer, unassigned) [Example 46b]: 28 nM; for `C#Cc1c(F)ccc2cccc(-c3nc4c5c(nc(=O)n(C[C@]67CCCN6CC(=C)C7)c5c3F)N3C[C@H]5CC[C@H](N5)[C@H]3[C@H](C)O4)c12` (single isomer, unassigned) [Example 200b]: 697 nM. The same measure, in the same setting: the same measure for `C=C1CN2CCC[C@@]2(Cn2c(=O)nc3c4c(nc(-c5cc(O)cc6ccc(F)c(Cl)c56)c(F)c42)O[C@@H](C)[C@@H]2[C@@H]4CC[C@H](CN32)N4)C1` [Example 363, (5S,5aS,6S,9R)-2-(8-chloro-7-fluoro-3-hydroxynaphthalen-1-yl)-1-fluoro-5-methyl-13-(((S)-2-methylenetetrahydro-1H-pyrrolizin-7a(5H)-yl)methyl)-5a,6,7,8,9,10-hexahydro-5H-4-oxa-3,10a,11,13,14-pentaaza-6,9-methanonaphtho[1,8-ab]heptalen-12(13H)-one]: 88 nM.

Compound `C#Cc1c(F)ccc2cc(O)cc(-c3nc4c5c(nc(=O)n(CC67CCCN6CC(=C)C7)c5c3F)N3C[C@H]5CC[C@H](N5)[C@H]3CO4)c12` (stereo partly drawn) [Example 24] registered an IC50 of 85 nM.

As for `C=C1CN2CCC[C@@]2(Cn2c(=O)nc3c4c(nc(-c5cc(O)cc6ccc(F)c(CC)c56)c(F)c42)O[C@@H](C)[C@@H]2[C@@H]4CC[C@](C)(CN32)N4)C1` [Example 362, (5S,5aS,6S,9R)-2-(8-ethyl-7-fluoro-3-hydroxynaphthalen-1-yl)-1-fluoro-5,9-dimethyl-13-(((S)-2-methylenetetrahydro-1H-pyrrolizin-7a(5H)-yl)methyl)-5a,6,7,8,9,10-hexahydro-5H-4-oxa-3,10a,11,13,14-pentaaza-6,9-methanonaphtho[1,8-ab]heptalen-12(13H)-one], the IC50 came to 221 nM. With `CCc1c(F)ccc2cc(O)cc(-c3nc4c5c(nc(=O)n(C[C@@]67CCCN6C[C@H](F)C7)c5c3F)N3C[C@@](C)(O)CCC3CO4)c12` (single isomer, unassigned) [Example 350a1], the IC50 stood at 151 nM. The compound `CCc1c(F)ccc2cc(O)cc(-c3nc4c5c(nc(=O)n(C[C@@]67CCCN6C[C@H](F)C7)c5c3F)N3C[C@H]5CC[C@H](N5)[C@H]3CO4)c12` [Example 45, (8aS,9S,12R)-5-(8-ethyl-7-fluoro-3-hydroxynaphthalen-1-yl)-4-fluoro-3-(((2R,7aS)-2-fluorotetrahydro-1H-pyrrolizin-7a(5H)-yl)methyl)-8a,9,10,11,12,13-hexahydro-8H-7-oxa-1,3,6,13a,14-pentaaza-9,12-methanonaphtho[1,8-ab]heptalen-2(3H)-one] returned an IC50 of 23 nM. On the same count and under the same terms, the same measure for `C#Cc1c(F)ccc2cccc(-c3nc4c5c(nc(=O)n(C[C@@]67CCCN6C[C@H](F)C7)c5c3F)N3C[C@H]5CC[C@H](N5)[C@H]3[C@H](C)O4)c12` [Example 199, (5S,5aS,6S,9R)-2-(8-ethynyl-7-fluoronaphthalen-1-yl)-1-fluoro-13-(((2R,7aS)-2-fluorotetrahydro-1H-pyrrolizin-7a(5H)-yl)methyl)-5-methyl-5a,6,7,8,9,10-hexahydro-5H-4-oxa-3,10a,11,13,14-pentaaza-6,9-methanonaphtho[1,8-ab]heptalen-12(13H)-one]: 37 nM; for `C#Cc1c(F)ccc2cccc(-c3nc4c5c(nc(=O)n(C[C@]67CC(=C)CN6C[C@@H](F)C7)c5c3F)N3C[C@H]5CC[C@H](N5)[C@H]3[C@H](C)O4)c12` (single isomer, unassigned) [Example 202b]: 991 nM. The same measure, in the same setting: the same measure for `C#Cc1c(F)ccc2cccc(-c3nc4c5c(nc(=O)n(C[C@@]6(C)CCN6C)c5c3F)N3C[C@H]5CC[C@H](N5)[C@H]3[C@H](C)O4)c12` [Example 357, (5S,5aS,6S,9R)-13-(((R)-1,2-dimethylazetidin-2-yl)methyl)-2-(8-ethynyl-7-fluoronaphthalen-1-yl)-1-fluoro-5-methyl-5a,6,7,8,9,10-hexahydro-5H-4-oxa-3,10a,11,13,14-pentaaza-6,9-methanonaphtho[1,8-ab]heptalen-12(13H)-one]: 123 nM.

Staying with this experiment, now noted: PANC-1 cells, compound incubation 3 hours, pERK normalised with GAPDH antibody staining.
As to `C#Cc1c(F)ccc2cccc(-c3nc4c5c(nc(=O)n(C6C7CC6CN(C)C7)c5c3F)N3C[C@H]5CC[C@H](N5)[C@H]3[C@H](C)O4)c12` (single isomer, unassigned) [Example 371b], half-maximal inhibition (IC50) was put at 794 nM. On the same count and under the same terms, the same measure for `C#Cc1c(F)ccc2cccc(-c3nc4c5c(nc(=O)n(C(C)[C@H]6CCN6C)c5c3F)N3C[C@H]5CC[C@H](N5)[C@H]3[C@H](C)O4)c12` (single isomer, unassigned) [Example 372b]: 70 nM; for `C#Cc1c(F)ccc2cccc(-c3nc4c5c(nc(=O)n(CC(C)(CO)N(C)C)c5c3F)N3C[C@H]5CC[C@H](N5)[C@H]3[C@H](C)O4)c12` (single isomer, unassigned) [Example 365b]: 110 nM. Same read-out and setting: the same measure for `C#Cc1c(F)ccc2cccc(-c3nc4c5c(nc(=O)n(C6C7CC6CN(C)C7)c5c3F)N3C[C@H]5CC[C@H](N5)[C@H]3[C@H](C)O4)c12` (single isomer, unassigned) [Example 371a]: 304 nM; for `C#Cc1c(F)ccc2cccc(-c3nc4c5c(nc(=O)n(C(C)[C@H]6CCN6C)c5c3F)N3C[C@H]5CC[C@H](N5)[C@H]3[C@H](C)O4)c12` (single isomer, unassigned) [Example 372a]: 391 nM; for `CCc1c(F)ccc2cc(O)cc(-c3nc4c5c(nc(=O)n(CC(C)(CO)N(C)C)c5c3F)N3C[C@H]5CC[C@H](N5)[C@H]3[C@H](C)O4)c12` (single isomer, unassigned) [Example 373b]: 137 nM.
